Source: patent publication US20260085062A1, “NOVEL COMPOUNDS AS CK2 INHIBITORS” (Cambridge Enterprise Limited, priority 2022, published 2026)

What was measured:
CK2α = target: T1, CK2α (Homo sapiens, UniProt P68400); assay: Biochemical assay for inhibitors of CK2α kinase activity (ADP-Glo); conditions: 0.2 nM CK2α, 50 μM peptide substrate, 15 μM ATP, read-out: Assay 1: CK2α Enzyme IC50
T1 construct: CK2α (residues 2-329) was produced in Escherichia coli BL21 (DE3) for kinase activity screening; His6 (N, cleaved yes); made in house; host or cells: Escherichia coli BL21 (DE3)
T1 sequence (P68400 2-329): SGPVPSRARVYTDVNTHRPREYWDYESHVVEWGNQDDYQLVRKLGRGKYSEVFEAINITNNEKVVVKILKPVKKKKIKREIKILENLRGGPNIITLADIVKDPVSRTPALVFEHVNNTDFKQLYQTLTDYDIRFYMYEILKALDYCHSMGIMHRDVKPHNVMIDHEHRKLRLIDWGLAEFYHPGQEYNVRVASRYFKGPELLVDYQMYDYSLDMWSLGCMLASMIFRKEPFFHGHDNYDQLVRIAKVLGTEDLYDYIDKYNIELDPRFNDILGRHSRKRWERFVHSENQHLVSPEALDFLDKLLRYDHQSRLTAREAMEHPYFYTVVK

CLK2 = target: T2, CLK2 (Homo sapiens, UniProt P49760); assay: Biochemical assay for inhibitors of CLK2 kinase activity (ADP-Glo); conditions: 20 nM CLK2, 50 μM peptide substrate, 100 μM ATP, read-out: Assay 2: CLK2 Enzyme IC50
T2 construct: purchased Carna Biosciences 04-127
T2 sequence (P49760 whole entry): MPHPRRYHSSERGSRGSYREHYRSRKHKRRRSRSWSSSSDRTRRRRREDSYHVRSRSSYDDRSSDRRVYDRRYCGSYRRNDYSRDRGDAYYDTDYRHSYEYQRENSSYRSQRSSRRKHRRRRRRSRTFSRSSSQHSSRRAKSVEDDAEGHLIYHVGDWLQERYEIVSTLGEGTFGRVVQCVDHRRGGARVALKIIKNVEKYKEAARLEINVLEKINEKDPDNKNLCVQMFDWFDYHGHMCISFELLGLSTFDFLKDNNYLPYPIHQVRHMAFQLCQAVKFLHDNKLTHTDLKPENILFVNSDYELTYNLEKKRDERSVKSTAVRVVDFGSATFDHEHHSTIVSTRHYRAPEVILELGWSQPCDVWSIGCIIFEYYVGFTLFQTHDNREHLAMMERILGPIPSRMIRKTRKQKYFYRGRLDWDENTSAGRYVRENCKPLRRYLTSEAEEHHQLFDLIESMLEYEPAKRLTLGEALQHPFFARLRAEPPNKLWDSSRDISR

intracellular CK2α = target: T3, intracellular CK2α (Homo sapiens, UniProt P19784); assay: Cell-based NanoBRET assay for inhibitor binding to intracellular CK2α; conditions: HCT116 cells transiently transfected with CSNK2A2-NanoLuc fusion vector; Tracer K-5; 2 h; read-out: Assay 3: NanoBRET ™ assay for binding to intracellular CK2α
T3 construct: host or cells: HCT116 (ATCC CCL-247)
T3 sequence (P19784 whole entry, the tested form may be a part): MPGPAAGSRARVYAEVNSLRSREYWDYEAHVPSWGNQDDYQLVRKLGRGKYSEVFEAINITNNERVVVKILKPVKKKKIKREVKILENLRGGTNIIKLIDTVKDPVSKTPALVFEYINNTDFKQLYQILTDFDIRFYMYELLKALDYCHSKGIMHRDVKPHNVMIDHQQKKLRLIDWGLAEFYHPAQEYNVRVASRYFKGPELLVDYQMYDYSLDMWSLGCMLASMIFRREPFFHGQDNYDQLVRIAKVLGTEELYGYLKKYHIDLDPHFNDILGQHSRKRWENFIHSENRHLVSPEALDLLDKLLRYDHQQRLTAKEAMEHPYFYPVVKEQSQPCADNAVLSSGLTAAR
Outline: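 Apparent affinity came from BRET ratio (acceptor/donor ×1,000), with donor read at 450 nm and acceptor at 610 or 630 nm. Compounds competed off a tracer added at fixed concentration to cells carrying a NanoLuc-CK2α fusion.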

In the case of `Cc1nncn1-c1cc(NCCCNC(=O)CCNCc2ccc(-c3ccccc3)c(Cl)c2)c2cn[nH]c2c1` [Example 71, 3-(((2-chloro-[1,1′-biphenyl]-4-yl)methyl)amino)-N-(3-((6-(3-methyl-4H-1,2,4-triazol-4-yl)-1H-indazol-4-yl)amino)propyl)propanamide], the IC50 (CK2α) is reported as 1.37 nM, the IC50 (CLK2) is reported as 416 nM and the IC50 (intracellular CK2α) is reported as 2160 nM.
In the case of `CN(CCCCNCc1ccc(OC(F)(F)F)c(Cl)c1)CCNc1cc(-n2cnnc2)cc2[nH]ncc12` [Example 72, N1-(2-((6-(4H-1,2,4-triazol-4-yl)-1H-indazol-4-yl)amino)ethyl)-N4-(3-chloro-4-(trifluoromethoxy)benzyl)-N1-methylbutane-1,4-diamine], the IC50 (CK2α) is reported as 0.7 nM, the IC50 (CLK2) is reported as 431 nM and the IC50 (intracellular CK2α) is reported as 294 nM.
`O=C(CCNCc1ccc(-c2ccccc2)c(Cl)c1)NCCCNc1cc(-c2cncnc2)cc2[nH]ncc12` [Example 73, 3-(((2-chloro-[1,1′-biphenyl]-4-yl)methyl)amino)-N-(3-((6-(pyrimidin-5-yl)-1H-indazol-4-yl)amino)propyl)propanamide] gave an IC50 (CK2α) of 44.3 nM, an IC50 (CLK2) of 1960 nM and an IC50 (intracellular CK2α) of 743 nM.
Compound `N#Cc1cc(-c2cc(NCCCNC(=O)CCNCc3ccc(-c4ccccc4)c(Cl)c3)c3cn[nH]c3c2)ccn1` [Example 74, 3-(((2-chloro-[1,1′-biphenyl]-4-yl)methyl)amino)-N-(3-((6-(2-cyanopyridin-4-yl)-1H-indazol-4-yl)amino)propyl)propanamide] has an IC50 (CK2α) of 19.7 nM, an IC50 (CLK2) of 10000 nM and an IC50 (intracellular CK2α) of 2130 nM.
Compound `O=C(CCNCc1ccc(-c2ccccc2)c(Cl)c1)NCCCNc1cc(-c2ccncn2)cc2[nH]ncc12` [Example 75, 3-(((2-chloro-[1,1′-biphenyl]-4-yl)methyl)amino)-N-(3-((6-(pyrimidin-4-yl)-1H-indazol-4-yl)amino)propyl)propanamide] has an IC50 (CK2α) of 0.89 nM, an IC50 (CLK2) of 404 nM and an IC50 (intracellular CK2α) of 76.5 nM.
For `COc1n[nH]cc1-c1cc(NCCCNC(=O)CCNCc2ccc(-c3ccccc3)c(Cl)c2)c2cn[nH]c2c1` [Example 76, 3-(((2-chloro-[1,1′-biphenyl]-4-yl)methyl)amino)-N-(3-((6-(3-methoxy-1H-pyrazol-4-yl)-1H-indazol-4-yl)amino)propyl)propanamide], the IC50 (CK2α) was 2.64 nM, the IC50 (CLK2) was 18.6 nM and the IC50 (intracellular CK2α) was 735 nM.
`O=C(CCNCc1ccc(C2CC2)c(CO)c1)NCCCNc1cc(-n2cnnc2)cc2[nH]ncc12` [Example 77, N-(3-((6-(4H-1,2,4-triazol-4-yl)-1H-indazol-4-yl)amino)propyl)-3-((4-cyclopropyl-3-(hydroxymethyl)benzyl)amino)propanamide] gave an IC50 (CK2α) of 5.71 nM, an IC50 (CLK2) of 95.7 nM and an IC50 (intracellular CK2α) of over 50000 nM.
Work on `O=C(CCNCc1ccc(-c2ccccc2)c(Cl)c1)NCCCNc1cc(N2CCOCC2)cc2[nH]ncc12` [Example 78, 3-(((2-chloro-[1,1′-biphenyl]-4-yl)methyl)amino)-N-(3-((6-morpholino-1H-indazol-4-yl)amino)propyl)propanamide] yielded an IC50 (CK2α) of 472 nM, an IC50 (CLK2) of over 50000 nM and an IC50 (intracellular CK2α) of over 50000 nM.
In the case of `O=C(CCNCc1ccc(-c2ccccc2)c(Cl)c1)NCCCNc1cc(-c2nn[nH]n2)cc2[nH]ncc12` [Example 79, N-(3-((6-(2H-tetrazol-5-yl)-1H-indazol-4-yl)amino)propyl)-3-(((2-chloro-[1,1′-biphenyl]-4-yl)methyl)amino)propanamide], the IC50 (CK2α) is reported as 0.33 nM, the IC50 (CLK2) is reported as 407 nM and the IC50 (intracellular CK2α) is reported as 5090 nM.
`Cc1nccn1-c1cc(NCCCNC(=O)CCNCc2ccc(-c3ccccc3)c(Cl)c2)c2cn[nH]c2c1` [Example 80, 3-(((2-chloro-[1,1′-biphenyl]-4-yl)methyl)amino)-N-(3-((6-(2-methyl-1H-imidazol-1-yl)-1H-indazol-4-yl)amino)propyl)propanamide] was tested, and the IC50 (CK2α) was 46.7 nM, the IC50 (CLK2) was 1920 nM and the IC50 (intracellular CK2α) was 8050 nM.
`O=C(CCNCc1ccc(-c2ccccc2)c(Cl)c1)NCCCNc1cc(C2COC2)cc2[nH]ncc12` [Example 81, 3-(((2-chloro-[1,1′-biphenyl]-4-yl)methyl)amino)-N-(3-((6-(oxetan-3-yl)-1H-indazol-4-yl)amino)propyl)propanamide] was tested, and the IC50 (CK2α) was 7.49 nM, the IC50 (CLK2) was 684 nM and the IC50 (intracellular CK2α) was 808 nM.
`O=C(CCNCc1ccc(-c2ccccc2)c(Cl)c1)NCCCNc1cc(C2CCOC2)cc2[nH]ncc12` (stereo not drawn) [Example 82, 3-(((2-chloro-[1,1′-biphenyl]-4-yl)methyl)amino)-N-(3-((6-(tetrahydrofuran-3-yl)-1H-indazol-4-yl)amino)propyl)propanamide] showed an IC50 (CK2α) of 23.3 nM, an IC50 (CLK2) of 1870 nM and an IC50 (intracellular CK2α) of 2120 nM.
For `O=C(CCNCc1ccc(OC(F)(F)F)c(Cl)c1)NCCCNc1cc(-n2cnnc2)cc2cn[nH]c12` [Example 83, N-(3-((5-(4H-1,2,4-triazol-4-yl)-1H-indazol-7-yl)amino)propyl)-3-((3-chloro-4-(trifluoromethoxy)benzyl)amino)propanamide], the IC50 (CK2α) was 2.56 nM, the IC50 (CLK2) was 1090 nM and the IC50 (intracellular CK2α) was 2260 nM.
For `COC(=O)c1cc(NCCOCCCCNCc2cc3cc(C(F)(F)F)ccc3[nH]2)c2cn[nH]c2c1` [Example 84, methyl4-((2-(4-(((5-(trifluoromethyl)-1H-indol-2-yl)methyl)amino)butoxy)ethyl)amino)-1H-indazole-6-carboxylate], the IC50 (CK2α) was 395 nM, the IC50 (CLK2) was 10500 nM and the IC50 (intracellular CK2α) was 36500 nM.
`O=C(O)c1cc(NCCOCCCCNCc2cc3cc(C(F)(F)F)ccc3[nH]2)c2cn[nH]c2c1` [Example 85, 4-((2-(4-(((5-(trifluoromethyl)-1H-indol-2-yl)methyl)amino)butoxy)ethyl)amino)-1H-indazole-6-carboxylic acid] gave an IC50 (CK2α) of 743 nM, an IC50 (CLK2) of 37100 nM and an IC50 (intracellular CK2α) of over 50000 nM.
`Cc1nncn1-c1cc(NCCOCCCCNCc2cc3cc(C(F)(F)F)ccc3[nH]2)c2cn[nH]c2c1` [Example 86, 6-(3-methyl-4H-1,2,4-triazol-4-yl)-N-(2-(4-(((5-(trifluoromethyl)-1H-indol-2-yl)methyl)amino)butoxy)ethyl)-1H-indazol-4-amine] showed an IC50 (CK2α) of 6.36 nM, an IC50 (CLK2) of 1670 nM and an IC50 (intracellular CK2α) of 1350 nM.
`COc1cc(-c2cc(NCCOCCCCNCc3cc4cc(C(F)(F)F)ccc4[nH]3)c3cn[nH]c3c2)ccn1` [Example 87, 6-(2-methoxypyridin-4-yl)-N-(2-(4-(((5-(trifluoromethyl)-1H-indol-2-yl)methyl)amino)butoxy)ethyl)-1H-indazol-4-amine] showed an IC50 (CK2α) of 12.3 nM, an IC50 (CLK2) of 1760 nM and an IC50 (intracellular CK2α) of 1300 nM.
In the case of `COC(=O)CCc1cc(NCCOCCCCNCc2cc3cc(C(F)(F)F)ccc3[nH]2)c2cn[nH]c2c1` [Example 88, methyl 3-(4-((2-(4-(((5-(trifluoromethyl)-1H-indol-2-yl)methyl)amino)butoxy)ethyl)amino)-1H-indazol-6-yl)propanoate], the IC50 (CK2α) is reported as over 1000 nM, the IC50 (CLK2) is reported as 41300 nM and the IC50 (intracellular CK2α) is reported as over 50000 nM.
Compound `O=C(O)CCc1cc(NCCOCCCCNCc2cc3cc(C(F)(F)F)ccc3[nH]2)c2cn[nH]c2c1` [Example 89, 3-(4-((2-(4-(((5-(trifluoromethyl)-1H-indol-2-yl)methyl)amino)butoxy)ethyl)amino)-1H-indazol-6-yl)propanoic acid] has an IC50 (CK2α) of over 1000 nM, an IC50 (CLK2) of 18400 nM and an IC50 (intracellular CK2α) of over 50000 nM.
In the case of `O=C(CCNCc1ccc(-c2ccccc2)c(Cl)c1)NCCCNc1cc(C2CCOCC2)cc2[nH]ncc12` [Example 90, 3-(((2-chloro-[1,1′-biphenyl]-4-yl)methyl)amino)-N-(3-((6-(tetrahydro-2H-pyran-4-yl)-1H-indazol-4-yl)amino)propyl)propanamide], the IC50 (CK2α) is reported as 212 nM, the IC50 (CLK2) is reported as 8780 nM and the IC50 (intracellular CK2α) is reported as 10600 nM.
Compound `Cc1nc[nH]c1-c1cc(NCCCNC(=O)CCNCc2ccc(-c3ccccc3)c(Cl)c2)c2cn[nH]c2c1` [Example 91, 3-(((2-chloro-[1,1′-biphenyl]-4-yl)methyl)amino)-N-(3-((6-(4-methyl-1H-imidazol-5-yl)-1H-indazol-4-yl)amino)propyl)propanamide] has an IC50 (CK2α) of 4.17 nM, an IC50 (CLK2) of 979 nM and an IC50 (intracellular CK2α) of 4590 nM.
With `COc1n[nH]cc1-c1cc(NCCOCCCCNCc2cc3cc(C(F)(F)F)ccc3[nH]2)c2cn[nH]c2c1` [Example 92, 6-(3-methoxy-1H-pyrazol-4-yl)-N-(2-(4-(((5-(trifluoromethyl)-1H-indol-2-yl)methyl)amino)butoxy)ethyl)-1H-indazol-4-amine] the IC50 (CK2α) was 19.1 nM, the IC50 (CLK2) was 24.1 nM and the IC50 (intracellular CK2α) was 1780 nM.
`FC(F)(F)c1ccc2[nH]c(CNCCCCOCCNc3cc(-c4ccnnc4)cc4[nH]ncc34)cc2c1` [Example 93, 6-(pyridazin-4-yl)-N-(2-(4-(((5-(trifluoromethyl)-1H-indol-2-yl)methyl)amino)butoxy)ethyl)-1H-indazol-4-amine] was tested, and the IC50 (CK2α) was 0.77 nM, the IC50 (CLK2) was 569 nM and the IC50 (intracellular CK2α) was 180 nM.
For `FC(F)(F)c1ccc2[nH]c(CNCCCCOCCNc3cccc4[nH]ncc34)cc2c1` [Example 94], the IC50 (CK2α) was 203 nM, the IC50 (CLK2) was 5790 nM and the IC50 (intracellular CK2α) was 29300 nM.
